Results as given in patent US10280145B2 (Toray Industries, Inc., priority 2015, dated 2019).

Biological target: T1, intracellular domain of DDR1 (Homo sapiens, UniProt Q08345)
T1 construct: the intracellular domain of DDR1 (in a final concentration of 5 ng/μL) (Carna Biosciences, Inc.); purchased Carna Biosciences, Inc
Test: Evaluation of DDR1 inhibition activity with HTRF KinEASE-TK kit
Format: biochemical
Settings: DDR1 intracellular domain 5 ng/μL, ATP 25 μm/L, TK Substrate-biotin 1000 nmol/L, room temperature, one hour
Description: The DDR1 inhibition activity in the compounds of Examples 1 to 80 was evaluated with HTRF® KinEASE-TK kit (Cisbio Bioassays).
Each test substance was dissolved in dimethyl sulfoxide and then used for the evaluation as described below. Moreover, each of test substances and reagents was diluted in the kinase buffer (Cisbio Bioassays) prepared by adding thereto MgCl2, MnCl2, DTT, and the Supplemental Enzyme buffer (Cisbio Bioassays) to concentrations of 5 mmol/L, 0.5 mmol/L, 0.25 mmol/L, and 50 nmol/L, respectively, and then used. Each test substance (in DMSO in a final concentration of 1%), the intracellular domain of DDR1 (in a final concentration of 5 ng/μL) (Carna Biosciences, Inc.), the phosphate donor ATP (in final concentration of 25 μm/L) (Sigma), and the substrate TK Substrate-biotin (in a final concentration of 1000 nmol/L) (Cisbio Bioassays) were added to a 384-well black plate (Corning) and allowed to react at room temperature for one hour. After completion of the reaction, the TK Antibody-Cryptate (Cisbio Bioassays) and the Streptavidin-XL665 (Cisbio Bioassays) were added thereto and allowed to react at room temperature for one hour. In addition, the plate was provided with a well to which a test substance was not added, and with a well to which a test substance and the intracellular domain of DDR1 were […].
The fluorescence intensity in each well was measured using a multi-label counter (Envision, PerkinElmer; excitation wavelength: 320 nm, measurement wavelength: 665 nm and 620 nm) to calculate a ratio (the fluorescence intensity at 665 nm/the fluorescence intensity at 620 nm). The inhibition rate (%) of a test substance at each concentration was calculated based on the formula below: Inhibition rate (%)=([the ratio obtained from the well containing no test substance]−[the ratio from a well containing a test substance])/([the ratio obtained from the well containing no test substance]−[the ratio obtained from the well containing no intracellular domain of DDR1 and no test substance])×100.
The calculated inhibition rates were fitted to a sigmoidal dose-response curve by regression analysis using the Prism 5.04 (GraphPad Software, Inc.) to calculate the IC50 value of the test substance.

T1 sequence (Q08345 439-913 limits assumed): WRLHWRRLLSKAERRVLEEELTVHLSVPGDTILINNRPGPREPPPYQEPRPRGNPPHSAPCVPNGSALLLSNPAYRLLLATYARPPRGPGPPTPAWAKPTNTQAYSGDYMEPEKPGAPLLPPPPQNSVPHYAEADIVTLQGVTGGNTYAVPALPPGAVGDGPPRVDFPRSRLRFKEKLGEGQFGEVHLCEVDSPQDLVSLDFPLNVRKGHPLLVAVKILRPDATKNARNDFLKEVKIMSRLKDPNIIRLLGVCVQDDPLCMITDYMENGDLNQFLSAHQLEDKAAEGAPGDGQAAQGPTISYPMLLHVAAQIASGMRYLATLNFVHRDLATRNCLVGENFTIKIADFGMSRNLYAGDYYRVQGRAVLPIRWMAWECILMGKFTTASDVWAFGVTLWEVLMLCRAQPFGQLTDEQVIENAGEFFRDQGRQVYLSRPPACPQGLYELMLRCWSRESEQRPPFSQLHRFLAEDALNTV

SMILES	IC50
CCOc1ccc(C(F)(F)F)cc1NC(=O)N[C@H]1CC[C@H](Oc2ccnc(N3CCOCC3)n2)CC1 [Example 46, 1-(2-ethoxy-5-(trifluoromethyl)phenyl)-3-(trans-4-((2-morpholinopyrimidin-4-yl)oxy)cyclohexyl)urea]	531 nM
O=C(Nc1cc(C(F)(F)F)ccc1OC1COC1)N[C@H]1CC[C@H](Oc2ccnc(-c3ccncc3)n2)CC1 [Example 47, 1-(2-(oxetan-3-yloxy)-5-(trifluoromethyl)phenyl)-3-(trans-4-((2-(pyridin-4-yl)pyrimidin-4-yl)oxy)cyclohexyl)urea]	56.6 nM
COc1c(CO)cc(OC(F)(F)F)cc1NC(=O)N[C@H]1CC[C@H](Oc2ccnc(N3CCOCC3)n2)CC1 [Example 50, 1-(3-(hydroxymethyl)-2-methoxy-5-(trifluoromethoxy)phenyl)-3-(trans-4-((2-morpholinopyrimidin-4-yl)oxy)cyclohexyl)urea]	35.1 nM
O=C(Nc1ccc(CO)c(C(F)(F)F)c1)N[C@H]1CC[C@H](Oc2ccnc(N3CCOCC3)n2)CC1 [Example 53, 1-(4-(hydroxymethyl)-3-(trifluoromethyl)phenyl)-3-(trans-4-((2-morpholinopyrimidin-4-yl)oxy)cyclohexyl)urea]	254 nM
CNc1ccnc(O[C@H]2CC[C@H](NC(=O)Nc3cc(OC(F)(F)F)ccc3OC)CC2)n1 [Example 54, 1-(2-methoxy-5-(trifluoromethoxy)phenyl)-3-(trans-4-((4-(methylamino)pyrimidin-2-yl)oxy)cyclohexyl)urea]	95.1 nM
O=C(Nc1cc(C(F)(F)F)ccc1OC1COC1)N[C@H]1CC[C@H](OCc2ccncc2)CC1 [Example 56, 1-(2-(oxetan-3-yloxy)-5-(trifluoromethyl)phenyl)-3-(trans-4-(pyridin-4-ylmethoxy)cyclohexyl)urea]	55.8 nM
O=C(Nc1cc(C(F)(F)F)ccc1N1CCOCC1)N[C@H]1CC[C@H](Oc2ncccn2)CC1 [Example 57, 1-(2-morpholino-5-(trifluoromethyl)phenyl)-3-(trans-4-(pyrimidin-2-yloxy)cyclohexyl)urea]	653 nM
O=C(Nc1cc(C(F)(F)F)ccc1Cl)N[C@H]1CC[C@H](Oc2ncccn2)CC1 [Example 58, 1-(2-chloro-5-(trifluoromethyl)phenyl)-3-(trans-4-(pyrimidin-2-yloxy)cyclohexyl)urea]	528 nM
COc1ccc(OC(F)(F)F)cc1NC(=O)N[C@H]1CC[C@H](Oc2cc(N3CCOCC3)ncn2)CC1 [Example 59, 1-(2-methoxy-5-(trifluoromethoxy)phenyl)-3-(trans-4-((6-morpholinopyrimidin-4-yl)oxy)cyclohexyl)urea]	335 nM
COc1c(CO)cc(C(F)(F)F)cc1NC(=O)N[C@H]1CC[C@H](Oc2ccnc(NCCO)n2)CC1 [Example 61, 1-(trans-4-((2-((2-hydroxyethyl)amino)pyrimidin-4-yl)oxy)cyclohexyl)-3-(3-(hydroxymethyl)-2-methoxy-5-(trifluoromethyl)phenyl)urea]	57.9 nM
COc1ccc(OC(F)(F)F)cc1NC(=O)N[C@H]1CC[C@H](Oc2ccnc(NCCO)n2)CC1 [Example 62, 1-(trans-4-((2-((2-hydroxyethyl)amino)pyrimidin-4-yl)oxy)cyclohexyl)-3-(2-methoxy-5-(trifluoromethoxy)phenyl)urea]	138 nM
O=C(Nc1cc(C(F)(F)F)ccc1OC1COC1)N[C@H]1CC[C@H](Oc2ccnc(NCCO)n2)CC1 [Example 63, 1-(trans-4-((2-((2-hydroxyethyl)amino)pyrimidin-4-yl)oxy)cyclohexyl)-3-(2-(oxetan-3-yloxy)-5-(trifluoromethyl)phenyl)urea]	46.7 nM
CNc1nccc(O[C@H]2CC[C@H](NC(=O)Nc3cc(C(F)(F)F)ccc3OC3COC3)CC2)n1 [Example 64, 1-(trans-4-((2-(methylamino)pyrimidin-4-yl)oxy)cyclohexyl)-3-(2-(oxetan-3-yloxy)-5-(trifluoromethyl)phenyl)urea]	54.5 nM

The next lines start with the values.

IC50	SMILES
42.1 nM	CNc1nccc(O[C@H]2CC[C@H](NC(=O)Nc3cc(C(F)(F)F)cc(CO)c3OC)CC2)n1 [Example 65, 1-(3-(hydroxymethyl)-2-methoxy-5-(trifluoromethyl)phenyl)-3-(trans-4-((2-(methylamino)pyrimidin-4-yl)oxy)cyclohexyl)urea]
98.4 nM	O=C(Nc1cc(C(F)(F)F)ccc1OC1COC1)N[C@H]1CC[C@H](Oc2ccncn2)CC1 [Example 66, 1-(2-(oxetan-3-yloxy)-5-(trifluoromethyl)phenyl)-3-(trans-4-(pyrimidin-4-yloxy)cyclohexyl)urea]
9.69 nM	COc1c(CO)cc(OC(F)(F)F)cc1NC(=O)N[C@H]1CC[C@H](OCc2cccnc2)CC1 [Example 67, 1-(3-(hydroxymethyl)-2-methoxy-5-(trifluoromethoxy)phenyl)-3-(trans-4-(pyridin-3-ylmethoxy)cyclohexyl)urea]
16.6 nM	COc1ccc(OC(F)(F)F)cc1NC(=O)N[C@H]1CC[C@H](OCc2cccnc2)CC1 [Example 68, 1-(2-methoxy-5-(trifluoromethoxy)phenyl)-3-(trans-4-(pyridin-3-ylmethoxy)cyclohexyl)urea]
17.2 nM	COc1ccc(C(F)(F)F)cc1NC(=O)N[C@H]1CC[C@H](OCc2cccnc2)CC1 [Example 69, 1-(2-methoxy-5-(trifluoromethyl)phenyl)-3-(trans-4-(pyridin-3-ylmethoxy)cyclohexyl)urea]
13.4 nM	CNc1cc(O[C@H]2CC[C@H](NC(=O)Nc3cc(OC(F)(F)F)cc(CO)c3OC)CC2)ncn1 [Example 70, 1-(3-(hydroxymethyl)-2-methoxy-5-(trifluoromethoxy)phenyl)-3-(trans-4-((6-(methylamino)pyrimidin-4-yl)oxy)cyclohexyl)urea]
10.8 nM	CNc1cc(O[C@H]2CC[C@H](NC(=O)Nc3cc(C(F)(F)F)cc(CO)c3OC)CC2)ncn1 [Example 71, 1-(3-(hydroxymethyl)-2-methoxy-5-(trifluoromethyl)phenyl)-3-(trans-4-((6-(methylamino)pyrimidin-4-yl)oxy)cyclohexyl)urea]
82.2 nM	COc1ccc(OC(F)(F)F)cc1NC(=O)N[C@H]1CC[C@H](COCc2cccnc2)CC1 [Example 72, 1-(2-methoxy-5-(trifluoromethoxy)phenyl)-3-(trans-4-((pyridin-3-ylmethoxy)methyl)cyclohexyl)urea]
57.7 nM	COc1ccc(C(F)(F)F)cc1NC(=O)N[C@H]1CC[C@H](COCc2cccnc2)CC1 [Example 73, 1-(2-methoxy-5-(trifluoromethyl)phenyl)-3-(trans-4-((pyridin-3-ylmethoxy)methyl)cyclohexyl)urea]
25.2 nM	COc1ccc(OC(F)(F)F)cc1NC(=O)N[C@H]1CC[C@H](COCc2ccncc2)CC1 [Example 74, 1-(2-methoxy-5-(trifluoromethoxy)phenyl)-3-(trans-4-((pyridin-4-ylmethoxy)methyl)cyclohexyl)urea]
20 nM	COc1ccc(C(F)(F)F)cc1NC(=O)N[C@H]1CC[C@H](COCc2ccncc2)CC1 [Example 75, 1-(2-methoxy-5-(trifluoromethyl)phenyl)-3-(trans-4-((pyridin-4-ylmethoxy)methyl)cyclohexyl)urea]
14.1 nM	O=C(Nc1cc(C(F)(F)F)ccc1OC1COC1)N[C@H]1CC[C@H](OCc2cccnc2)CC1 [Example 76, 1-(2-(oxetan-3-yloxy)-5-(trifluoromethyl)phenyl)-3-(trans-4-(pyridin-3-ylmethoxy)cyclohexyl)urea]
80.1 nM	COc1ccc(OC(F)(F)F)cc1NC(=O)N[C@H]1CC[C@H](COc2cccc(C(N)=O)c2)CC1 [Example 78, 3-((trans-4-(3-(2-methoxy-5-(trifluoromethoxy)phenyl)ureido)cyclohexyl)methoxy)benzamide]
22.8 nM	COc1c(CO)cc(OC(F)(F)F)cc1NC(=O)N[C@H]1CC[C@H](Oc2ccnc(-c3cccnc3)n2)CC1 [Example 79, 1-(3-(hydroxymethyl)-2-methoxy-5-(trifluoromethoxy)phenyl)-3-(trans-4-((2-(pyridin-3-yl)pyrimidin-4-yl)oxy)cyclohexyl)urea]
24.9 nM	CNc1nccc(O[C@H]2CC[C@H](NC(=O)Nc3cc(OC(F)(F)F)cc(CO)c3OC)CC2)n1 [Example 80, 1-(3-(hydroxymethyl)-2-methoxy-5-(trifluoromethoxy)phenyl)-3-(trans-4-((2-(methylamino)pyrimidin-4-yl)oxy)cyclohexyl)urea]
